Activity calls are given as the source filed them.
Key:
BJ [1] = experiment: BJ-TERT-LT-ST fibroblast viability loss – cell-based, RAS-independent, luminescence, dose response (AID 1935); type: functional; conditions: Homo sapiens;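 further: BJ fibroblasts immortalized with TERT plus LT and ST oncogenes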
[2] = luciferase reporter signal suppression in cells – H4 neuroglioma cells, luminescence, dose response (AID 1990); type: functional, cell-based
BJ [3] = experiment: BJ-TERT fibroblast viability loss – cell-based, RAS-independent, luminescence, dose response (AID 1933); type: functional; conditions: Homo sapiens
BJ [4] = experiment: cells; type: functional, cell-based; conditions: Homo sapiens
[5] = Luminescence Cell-Based Dose Response HTS to Identify Inhibitors of 5'UTR Stem-Loop Driven Prion Protein mRNA Translation in H4 Neuroglioblastoma Cells. [Related pubchem assays: 1827 (Project Summary), 1813 (Primary HTS)]; type: functional
INS1 = experiment: INS-1E survival protection against cytokine death – cell-based, luminescence, retest, dose response (AID 449756); type: functional; conditions: Rattus norvegicus;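 further: cell death triggered by IL-1 beta plus TNF-alpha plus IFN-gamma mixture; protective hits raise ATP signal compared with cytokine alone wells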
[6] = NIH-3T3 fibroblast cytotoxicity, dose response, cytotoxicity control, cell-based, fluorescence, Alamar Blue, secondary assay (AID 2327); type: functional;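 further: NIH-3T3 mouse fibroblasts cultured with fluconazole at 8 µg/mL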
[7] = DRD fibroblast viability loss – cell-based, non-viral oncogenic, luminescence, dose response (AID 1934); type: functional; conditions: Homo sapiens
[8] = alpha-synuclein stem-loop luciferase translation blockers – H4 neuroglioma cells, luminescence, confirmation (AID 1988); type: functional, cell-based
CAAX prenyl protease 2 = CAAX prenyl protease 2 (Saccharomyces cerevisiae S288c, UniProt Q03530); type: biochemical
[9] = fluconazole-exposed Candida albicans growth modulators – fluorescence, retest, confirmation (AID 2467); type: functional, cell-based
[10] = target: Alkaline phosphatase, placental type (Homo sapiens, UniProt P05187); experiment: human placental alkaline phosphatase inhibition – biochemical, luminescence, confirmation (AID 1512); type: functional
[11] = target: Dual specificity protein phosphatase 3 (Homo sapiens, UniProt P51452); experiment: SAR VHR1 Fluorescent Assay for In Vitro dose response studies Set 2. [Related pubchem assays (depositor defined):AID1654, AID1661, AID1878]; type: functional
[12] = target: T1, Tyrosine-protein phosphatase non-receptor type 7 (Homo sapiens, UniProt P35236); experiment: SAR analysis of chemical inhibitors of HePTP using a Fluorescent assay - Set 2. [Related pubchem assays (depositor defined):AID1059, AID1077, AID1661, AID2085, AID521]; type: functional
T1 sequence (P35236 whole entry): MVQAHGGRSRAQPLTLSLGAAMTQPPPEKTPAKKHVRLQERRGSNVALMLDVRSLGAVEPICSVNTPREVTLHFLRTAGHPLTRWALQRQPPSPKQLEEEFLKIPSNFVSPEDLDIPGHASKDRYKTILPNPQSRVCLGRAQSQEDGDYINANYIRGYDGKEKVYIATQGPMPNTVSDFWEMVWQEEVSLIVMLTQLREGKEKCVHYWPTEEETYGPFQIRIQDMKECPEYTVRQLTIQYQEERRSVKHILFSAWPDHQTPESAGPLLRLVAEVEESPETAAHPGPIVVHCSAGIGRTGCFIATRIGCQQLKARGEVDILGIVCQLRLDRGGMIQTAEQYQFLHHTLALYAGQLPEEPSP

[13] = target: Mitochondrial peptide methionine sulfoxide reductase (Bos taurus, UniProt P54149); experiment: Absorbance-based biochemical high throughput dose response assay for activators of Methionine sulfoxide reductase A (MsrA).; type: functional
[14] = target: DNA dC->dU-editing enzyme APOBEC-3A (Homo sapiens, UniProt P31941); experiment: A3A deaminase inhibition for selectivity – biochemical, dose response (AID 504722); type: functional
Beta Lactamase = Beta Lactamase (Pseudomonas aeruginosa, UniProt Q932Y6); experiment: BLA reporter interference, concentration series – BLA reporter cells, FRET fluorescence, artefact control for NOD2-RIPK2 interaction inhibitor project, dose response (AID 651552); type: functional, cell-based
[15] = viability loss in HeLa cells – cytotoxicity control for MgcRacGAP inhibitor project, dose response (AID 624300); type: functional
[16] = Fluorescence-based cell-based high throughput dose response assay for inhibitors of the interaction of nucleotide-binding oligomerization domain containing 2 (NOD2) and the receptor-interacting serine-threonine kinase 2 (RIPK2).; type: functional; conditions: Homo sapiens
Phosphomannomutase 2 = target: T2, Phosphomannomutase 2 (Homo sapiens, UniProt O15305); experiment: Counter screen SAR assay for PMM2 inhibitors via a fluorescence intensity assay. [Related pubchem assays (depositor defined):AID1545, AID1574]
T2 sequence (O15305 whole entry): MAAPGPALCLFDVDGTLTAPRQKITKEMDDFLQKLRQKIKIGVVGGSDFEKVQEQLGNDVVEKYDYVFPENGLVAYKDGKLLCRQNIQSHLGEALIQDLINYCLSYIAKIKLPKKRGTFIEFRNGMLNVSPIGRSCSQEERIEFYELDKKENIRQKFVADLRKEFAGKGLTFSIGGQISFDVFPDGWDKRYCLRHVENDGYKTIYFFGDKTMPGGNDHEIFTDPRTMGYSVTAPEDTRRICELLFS

[17] = target: T3, Rac GTPase-activating protein 1 (Homo sapiens, UniProt Q9H0H5); experiment: blockers of MgcRacGAP-driven Rac1 GTP hydrolysis – biochemical, ADP Hunter fluorescence, primary and confirmatory, confirmation (AID 624330); type: functional
T3 sequence (Q9H0H5 whole entry): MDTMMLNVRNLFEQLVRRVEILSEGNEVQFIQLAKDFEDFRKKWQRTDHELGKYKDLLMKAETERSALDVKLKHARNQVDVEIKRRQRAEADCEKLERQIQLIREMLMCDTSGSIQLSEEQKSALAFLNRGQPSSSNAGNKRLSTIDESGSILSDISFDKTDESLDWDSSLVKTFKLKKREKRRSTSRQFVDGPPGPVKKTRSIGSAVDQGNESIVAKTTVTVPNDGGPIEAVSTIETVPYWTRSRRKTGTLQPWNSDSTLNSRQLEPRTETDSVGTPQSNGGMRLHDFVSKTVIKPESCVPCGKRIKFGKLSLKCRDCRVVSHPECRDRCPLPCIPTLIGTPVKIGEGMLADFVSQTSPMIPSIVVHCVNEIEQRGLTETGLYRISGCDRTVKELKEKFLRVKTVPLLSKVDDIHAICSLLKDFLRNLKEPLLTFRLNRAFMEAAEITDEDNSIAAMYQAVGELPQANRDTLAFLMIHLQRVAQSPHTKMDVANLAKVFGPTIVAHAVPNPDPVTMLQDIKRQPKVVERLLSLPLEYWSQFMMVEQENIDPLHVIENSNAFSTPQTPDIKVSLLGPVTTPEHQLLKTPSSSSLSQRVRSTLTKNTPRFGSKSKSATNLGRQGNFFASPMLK

[18] = target: T4, Polyadenylate-binding protein 1 (Homo sapiens, UniProt P11940); experiment: MLLE binding blockers, Cy5 peptide tracer – biochemical, fluorescence polarization, Cy5-PAM2 peptide, secondary, miRNA deadenylation inhibitor project, dose response (AID 602260); type: functional; conditions: read-out: IC50_Mean
[19] = target: T4, Polyadenylate-binding protein 1; experiment: MLLE domain peptide-binding blockers, IC50 – biochemical, fluorescence polarization, FITC-PAM2 peptide, dose response (AID 602259); type: functional; conditions: read-out: IC50_Mean
[20] = target: T5, Mannose-6-phosphate isomerase (Homo sapiens, UniProt P34949); experiment: phosphomannose isomerase inhibition – biochemical, fluorescence intensity, confirmation (AID 1535)
T5 sequence (P34949 whole entry): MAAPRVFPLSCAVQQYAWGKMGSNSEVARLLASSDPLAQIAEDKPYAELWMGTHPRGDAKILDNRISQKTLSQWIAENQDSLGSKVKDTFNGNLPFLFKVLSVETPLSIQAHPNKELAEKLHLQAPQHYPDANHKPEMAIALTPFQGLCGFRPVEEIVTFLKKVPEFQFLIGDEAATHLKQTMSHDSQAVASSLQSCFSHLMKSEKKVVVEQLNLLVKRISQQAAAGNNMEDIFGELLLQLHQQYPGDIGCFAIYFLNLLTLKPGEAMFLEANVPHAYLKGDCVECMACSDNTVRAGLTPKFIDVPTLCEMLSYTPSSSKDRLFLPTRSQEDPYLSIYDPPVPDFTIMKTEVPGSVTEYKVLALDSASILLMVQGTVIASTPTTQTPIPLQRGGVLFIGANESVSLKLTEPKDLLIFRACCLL

[21] = target: Phosphoethanolamine/phosphocholine phosphatase (Homo sapiens, UniProt Q8TCT1); experiment: SAR assay for compounds that inhibit PHOSPHO1. [Related pubchem assays (depositor defined):AID1545, AID1565, AID1574]
[22] = target: T6, Alkaline phosphatase, tissue-nonspecific isozyme (Homo sapiens, UniProt P05186); experiment: potency against alkaline phosphatase TNAP – biochemical, luminescent, dose response, SAR follow-up (AID 1056)
T6 sequence (P05186 whole entry): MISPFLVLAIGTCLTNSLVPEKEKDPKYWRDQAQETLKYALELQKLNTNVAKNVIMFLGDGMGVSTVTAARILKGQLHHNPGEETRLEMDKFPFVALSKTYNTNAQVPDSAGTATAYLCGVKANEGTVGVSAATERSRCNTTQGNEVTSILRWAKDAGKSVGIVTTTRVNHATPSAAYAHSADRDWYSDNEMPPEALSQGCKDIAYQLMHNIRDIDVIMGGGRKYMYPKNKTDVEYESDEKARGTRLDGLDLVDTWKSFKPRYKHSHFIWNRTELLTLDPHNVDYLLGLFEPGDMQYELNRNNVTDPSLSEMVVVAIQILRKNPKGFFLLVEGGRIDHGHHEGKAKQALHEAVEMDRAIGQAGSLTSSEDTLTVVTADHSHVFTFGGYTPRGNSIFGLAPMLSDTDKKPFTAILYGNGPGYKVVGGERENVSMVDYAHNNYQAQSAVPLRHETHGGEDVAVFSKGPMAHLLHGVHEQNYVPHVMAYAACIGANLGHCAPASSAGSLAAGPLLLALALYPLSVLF

[23] = target: DNA dC->dU-editing enzyme APOBEC-3G (Homo sapiens, UniProt Q9HC16); experiment: Dose Response confirmation of small molecule APOBEC3G DNA Deaminase Inhibitors via a fluorescence-based single-stranded DNA deaminase assay. [Related pubchem assays (depositor defined):AID493012, AID493028]; type: functional
[24] = target: T7, Short transient receptor potential channel 4 (Mus musculus, UniProt Q9QUQ5); experiment: potentiation of DAMGO-evoked TRPC4 calcium signal – cell-based, HEK293 TRPC4/mu-opioid, Fluo-4 calcium, EC20 DAMGO, dose response (AID 434941); type: functional
T7 sequence (Q9QUQ5 whole entry): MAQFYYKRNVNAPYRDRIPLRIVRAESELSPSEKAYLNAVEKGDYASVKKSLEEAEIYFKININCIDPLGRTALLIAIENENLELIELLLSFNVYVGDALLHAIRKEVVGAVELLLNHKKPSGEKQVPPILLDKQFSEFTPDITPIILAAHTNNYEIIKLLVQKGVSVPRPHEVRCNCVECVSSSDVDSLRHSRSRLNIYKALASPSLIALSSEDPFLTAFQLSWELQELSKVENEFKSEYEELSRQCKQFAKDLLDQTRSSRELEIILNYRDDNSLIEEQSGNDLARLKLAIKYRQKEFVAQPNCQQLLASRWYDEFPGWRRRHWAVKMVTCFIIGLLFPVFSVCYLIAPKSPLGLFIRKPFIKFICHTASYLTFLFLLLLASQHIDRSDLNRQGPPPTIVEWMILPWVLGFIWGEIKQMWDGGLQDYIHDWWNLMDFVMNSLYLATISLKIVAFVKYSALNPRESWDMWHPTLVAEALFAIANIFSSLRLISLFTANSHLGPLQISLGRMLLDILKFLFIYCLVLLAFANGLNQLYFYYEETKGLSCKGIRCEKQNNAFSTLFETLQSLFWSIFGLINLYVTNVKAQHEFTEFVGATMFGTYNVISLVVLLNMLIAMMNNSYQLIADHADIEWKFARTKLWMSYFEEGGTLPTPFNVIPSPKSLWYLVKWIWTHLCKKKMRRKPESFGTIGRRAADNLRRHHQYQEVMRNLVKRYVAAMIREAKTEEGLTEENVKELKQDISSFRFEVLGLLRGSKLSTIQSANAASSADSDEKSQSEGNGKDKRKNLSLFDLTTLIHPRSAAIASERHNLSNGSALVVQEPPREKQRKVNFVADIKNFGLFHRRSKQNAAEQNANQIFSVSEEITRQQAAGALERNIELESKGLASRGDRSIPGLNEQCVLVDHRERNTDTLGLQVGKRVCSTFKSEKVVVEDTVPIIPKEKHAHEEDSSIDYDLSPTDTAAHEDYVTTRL

[25] = target: Intestinal-type alkaline phosphatase (Mus musculus, UniProt P24822); experiment: PubChem AID 488785; type: functional
[26] = target: Intestinal-type alkaline phosphatase (Homo sapiens, UniProt P09923); experiment: activation of human intestinal alkaline phosphatase – biochemical, dose response (AID 488873); type: functional
[27] = target: T6, Alkaline phosphatase, tissue-nonspecific isozyme; experiment: TNAP enzyme inhibition by screening hits, dose response, selectivity assay for mouse IAP inhibitor project, biochemical, human TNAP, uHTS hits (AID 488906); type: functional

T4 sequence (P11940 whole entry, the tested form may be a part): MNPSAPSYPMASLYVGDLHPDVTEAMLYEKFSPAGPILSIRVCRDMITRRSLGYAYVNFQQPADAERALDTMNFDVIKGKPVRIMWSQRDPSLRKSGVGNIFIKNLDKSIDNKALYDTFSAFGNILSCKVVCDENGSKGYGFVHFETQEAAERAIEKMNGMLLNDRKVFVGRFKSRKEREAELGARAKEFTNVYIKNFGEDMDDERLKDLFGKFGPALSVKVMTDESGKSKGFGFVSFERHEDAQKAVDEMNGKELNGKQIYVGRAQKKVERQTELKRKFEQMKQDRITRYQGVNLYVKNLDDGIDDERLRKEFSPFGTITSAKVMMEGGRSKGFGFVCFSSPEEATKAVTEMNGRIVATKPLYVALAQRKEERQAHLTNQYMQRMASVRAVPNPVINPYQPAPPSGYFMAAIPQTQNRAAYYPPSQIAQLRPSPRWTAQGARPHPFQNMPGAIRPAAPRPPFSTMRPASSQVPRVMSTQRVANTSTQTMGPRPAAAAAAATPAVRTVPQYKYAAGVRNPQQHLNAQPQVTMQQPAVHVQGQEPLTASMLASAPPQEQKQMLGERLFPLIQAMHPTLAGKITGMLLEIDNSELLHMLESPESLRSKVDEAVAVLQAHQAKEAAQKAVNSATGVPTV
Sequence of Intestinal-type alkaline phosphatase (Mus musculus, UniProt P24822) (P24822 whole entry): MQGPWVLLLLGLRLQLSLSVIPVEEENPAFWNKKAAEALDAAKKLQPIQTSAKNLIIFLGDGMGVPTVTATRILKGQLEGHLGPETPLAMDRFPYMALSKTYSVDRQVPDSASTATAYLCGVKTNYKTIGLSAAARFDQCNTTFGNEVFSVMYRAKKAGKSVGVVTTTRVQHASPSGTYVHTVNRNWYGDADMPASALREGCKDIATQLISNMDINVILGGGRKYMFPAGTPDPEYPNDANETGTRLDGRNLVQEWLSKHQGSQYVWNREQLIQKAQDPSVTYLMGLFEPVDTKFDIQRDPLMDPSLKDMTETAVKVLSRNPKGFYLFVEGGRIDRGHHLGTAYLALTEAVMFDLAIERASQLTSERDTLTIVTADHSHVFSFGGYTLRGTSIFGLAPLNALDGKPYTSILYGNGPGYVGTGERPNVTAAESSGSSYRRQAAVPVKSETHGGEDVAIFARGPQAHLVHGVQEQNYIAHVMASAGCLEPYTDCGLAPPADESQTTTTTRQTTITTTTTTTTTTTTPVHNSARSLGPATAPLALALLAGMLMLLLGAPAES
Sequence of Mitochondrial peptide methionine sulfoxide reductase (P54149 whole entry): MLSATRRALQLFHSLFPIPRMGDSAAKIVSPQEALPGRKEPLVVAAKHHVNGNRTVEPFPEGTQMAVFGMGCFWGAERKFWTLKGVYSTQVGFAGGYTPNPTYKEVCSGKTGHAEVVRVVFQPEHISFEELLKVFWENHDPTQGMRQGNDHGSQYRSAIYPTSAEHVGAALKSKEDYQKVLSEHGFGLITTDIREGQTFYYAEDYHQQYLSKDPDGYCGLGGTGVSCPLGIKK
Sequence of DNA dC->dU-editing enzyme APOBEC-3G (Q9HC16 whole entry): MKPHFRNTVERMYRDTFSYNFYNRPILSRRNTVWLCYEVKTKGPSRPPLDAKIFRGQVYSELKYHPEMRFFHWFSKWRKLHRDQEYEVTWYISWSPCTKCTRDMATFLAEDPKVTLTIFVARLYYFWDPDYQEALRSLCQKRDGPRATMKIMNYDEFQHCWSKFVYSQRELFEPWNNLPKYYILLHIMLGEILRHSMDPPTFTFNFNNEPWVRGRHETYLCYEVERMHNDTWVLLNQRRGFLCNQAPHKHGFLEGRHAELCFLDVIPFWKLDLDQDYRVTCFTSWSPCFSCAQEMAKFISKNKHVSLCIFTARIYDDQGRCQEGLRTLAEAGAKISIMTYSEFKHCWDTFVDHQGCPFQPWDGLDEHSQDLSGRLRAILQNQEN
Sequence of Beta Lactamase (Q932Y6 whole entry): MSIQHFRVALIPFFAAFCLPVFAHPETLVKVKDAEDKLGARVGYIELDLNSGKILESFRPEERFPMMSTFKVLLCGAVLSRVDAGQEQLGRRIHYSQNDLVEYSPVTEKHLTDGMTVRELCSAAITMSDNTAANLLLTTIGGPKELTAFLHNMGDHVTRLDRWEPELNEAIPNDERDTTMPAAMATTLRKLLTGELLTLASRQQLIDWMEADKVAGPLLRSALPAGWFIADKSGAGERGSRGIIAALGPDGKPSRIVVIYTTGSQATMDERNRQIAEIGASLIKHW
Sequence of Intestinal-type alkaline phosphatase (Homo sapiens, UniProt P09923) (P09923 whole entry): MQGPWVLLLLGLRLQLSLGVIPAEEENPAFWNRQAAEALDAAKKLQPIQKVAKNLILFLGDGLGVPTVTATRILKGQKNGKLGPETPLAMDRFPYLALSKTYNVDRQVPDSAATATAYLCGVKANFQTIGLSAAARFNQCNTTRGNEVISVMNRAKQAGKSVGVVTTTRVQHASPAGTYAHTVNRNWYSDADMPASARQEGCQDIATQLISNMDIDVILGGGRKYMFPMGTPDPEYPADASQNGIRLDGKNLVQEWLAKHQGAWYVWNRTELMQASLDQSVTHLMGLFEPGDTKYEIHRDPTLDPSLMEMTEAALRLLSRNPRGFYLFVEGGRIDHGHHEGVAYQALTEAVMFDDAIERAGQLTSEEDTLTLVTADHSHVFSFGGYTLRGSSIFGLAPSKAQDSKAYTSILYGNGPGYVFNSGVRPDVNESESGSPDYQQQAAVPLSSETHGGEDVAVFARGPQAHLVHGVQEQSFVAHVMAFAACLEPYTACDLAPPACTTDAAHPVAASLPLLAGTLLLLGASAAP
Sequence of Dual specificity protein phosphatase 3 (P51452 whole entry): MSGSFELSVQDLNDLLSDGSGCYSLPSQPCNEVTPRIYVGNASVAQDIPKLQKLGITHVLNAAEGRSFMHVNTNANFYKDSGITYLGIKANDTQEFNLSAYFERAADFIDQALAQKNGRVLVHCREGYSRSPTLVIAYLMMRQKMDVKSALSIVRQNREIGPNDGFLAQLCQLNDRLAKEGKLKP
Sequence of Phosphoethanolamine/phosphocholine phosphatase (Q8TCT1 whole entry): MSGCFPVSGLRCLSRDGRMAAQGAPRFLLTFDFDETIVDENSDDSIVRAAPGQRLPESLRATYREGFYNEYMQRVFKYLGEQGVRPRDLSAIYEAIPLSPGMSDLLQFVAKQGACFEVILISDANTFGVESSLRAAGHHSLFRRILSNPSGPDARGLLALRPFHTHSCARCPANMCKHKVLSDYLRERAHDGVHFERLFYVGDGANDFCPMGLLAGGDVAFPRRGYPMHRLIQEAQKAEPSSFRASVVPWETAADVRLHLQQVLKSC
Sequence of CAAX prenyl protease 2 (Q03530 whole entry): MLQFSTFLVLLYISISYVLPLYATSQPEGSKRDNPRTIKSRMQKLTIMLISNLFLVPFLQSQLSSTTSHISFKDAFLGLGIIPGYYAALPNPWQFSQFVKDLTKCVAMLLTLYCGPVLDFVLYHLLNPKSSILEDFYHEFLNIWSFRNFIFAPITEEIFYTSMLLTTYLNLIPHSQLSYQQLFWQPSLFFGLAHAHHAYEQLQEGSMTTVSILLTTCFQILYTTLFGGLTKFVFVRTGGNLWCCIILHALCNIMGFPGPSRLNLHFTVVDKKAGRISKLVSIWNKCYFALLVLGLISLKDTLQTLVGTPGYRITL
Sequence of Alkaline phosphatase, placental type (P05187 whole entry): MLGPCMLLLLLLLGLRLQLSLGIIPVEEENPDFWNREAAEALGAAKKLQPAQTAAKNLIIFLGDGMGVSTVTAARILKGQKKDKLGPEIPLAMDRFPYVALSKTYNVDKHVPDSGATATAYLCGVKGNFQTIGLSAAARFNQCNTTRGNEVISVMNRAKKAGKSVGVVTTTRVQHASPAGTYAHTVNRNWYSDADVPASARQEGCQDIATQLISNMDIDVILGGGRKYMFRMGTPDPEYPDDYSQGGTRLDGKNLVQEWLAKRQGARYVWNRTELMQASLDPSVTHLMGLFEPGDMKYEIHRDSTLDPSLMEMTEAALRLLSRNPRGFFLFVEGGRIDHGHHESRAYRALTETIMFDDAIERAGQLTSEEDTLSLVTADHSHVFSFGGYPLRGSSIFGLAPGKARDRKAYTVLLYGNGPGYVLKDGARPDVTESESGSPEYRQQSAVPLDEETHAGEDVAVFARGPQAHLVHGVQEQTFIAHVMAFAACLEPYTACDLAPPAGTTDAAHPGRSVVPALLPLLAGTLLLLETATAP
Sequence of DNA dC->dU-editing enzyme APOBEC-3A (P31941 whole entry): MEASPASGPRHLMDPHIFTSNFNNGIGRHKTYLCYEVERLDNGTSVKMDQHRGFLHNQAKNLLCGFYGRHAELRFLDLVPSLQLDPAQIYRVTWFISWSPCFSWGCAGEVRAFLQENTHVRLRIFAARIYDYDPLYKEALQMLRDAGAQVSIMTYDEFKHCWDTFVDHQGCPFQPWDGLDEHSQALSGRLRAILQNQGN

Cc1ccc(-c2cc(-c3ccccc3)cc(-c3ccccc3)[n+]2-c2ccccc2)cc1.[O-][Cl+3]([O-])([O-])[O-]
EC50 (BJ [1]): 4.96 µM (active) | EC50 [2]: > 120 µM (not active) | EC50 (BJ [3]): 4.34 µM (active) | EC50 (BJ [4]): 7.64 µM (active) | EC50 [5]: > 120 µM (not active) | AC50 (INS1): 1.89 µM (active) | EC50 [6]: 43.8 µM (active) | EC50 [7]: 6.7 µM (active) | EC50 [8]: 10.7 µM (active) | AC50 (CAAX prenyl protease 2): 29.1 µM (active) | EC50 [9]: 0.378 µM (active)

Cc1ccc(NC(S)=NNC(=O)c2c(Cl)c(C)nn2C)cc1
IC50 [10]: > 100 µM (inactive) | IC50 [11]: > 100 µM (inactive) | IC50 [12]: > 100 µM (inactive)

O=c1c2ccccc2sn1-c1ccc(F)cc1
EC50 [13]: 98.5 µM (inactive) | IC50 [14]: > 100 µM (inactive) | IC50 (Beta Lactamase): 29.5 µM (inactive) | CC50 [15]: 77.3 µM (active) | IC50 [16]: 5.1 µM (active) | IC50 (Phosphomannomutase 2): 18.1 µM (active) | IC50 [17]: 39.3 µM (active) | IC50 [18]: > 66 µM (inactive) | IC50 [19]: > 66 µM (inactive) | IC50 [20]: 1.49 µM (active) | IC50 [21]: 4.85 µM (inactive) | IC50 [22]: > 100 µM (inactive) | IC50 [23]: 12.4 µM (active)

CC1=C(C(=O)NCc2ccccc2)C(c2cc(Br)cc(Br)c2OC(C)C)NC(=O)N1 (stereo unspecified)
EC50 [24]: 4.22 µM (active)

CC1(C(=O)NNC(=O)c2ccc(=O)oc2)CC1Br (stereo unspecified)
IC50 [25]: 11 µM (active) | EC50 [26]: > 100 µM (inactive) | IC50 [27]: > 100 µM (inactive)
